pKi: −log10 of the molar value. Where “and” joins values, the source holds several entries; their conditions need not be identical. Identical values can stand only once. One block for each compound: values may come before it. Calls of active or inactive are those of the source. The rule behind the calls is not given here.
How the values were obtained:
[1] = biological target: T1, 5-hydroxytryptamine receptor 1F (Homo sapiens, UniProt P30939); assay: Binding affinity for 5-hydroxytryptamine 1F receptor was determined
T1 sequence (P30939 whole entry): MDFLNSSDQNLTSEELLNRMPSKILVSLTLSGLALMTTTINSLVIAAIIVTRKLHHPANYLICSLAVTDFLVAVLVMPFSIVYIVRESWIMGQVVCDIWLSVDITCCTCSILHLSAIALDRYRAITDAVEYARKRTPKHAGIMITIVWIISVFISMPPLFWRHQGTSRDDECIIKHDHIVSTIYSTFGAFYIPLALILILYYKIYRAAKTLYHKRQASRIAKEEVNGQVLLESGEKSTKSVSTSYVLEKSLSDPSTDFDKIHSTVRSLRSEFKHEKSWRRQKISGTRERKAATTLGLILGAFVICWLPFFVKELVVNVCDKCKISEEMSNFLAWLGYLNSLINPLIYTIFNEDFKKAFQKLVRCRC

[2] = biological target: T2, 5-hydroxytryptamine receptor 1B (Homo sapiens, UniProt P28222); assay: Binding affinity for 5-hydroxytryptamine 1B receptor was determined
T2 sequence (P28222 whole entry): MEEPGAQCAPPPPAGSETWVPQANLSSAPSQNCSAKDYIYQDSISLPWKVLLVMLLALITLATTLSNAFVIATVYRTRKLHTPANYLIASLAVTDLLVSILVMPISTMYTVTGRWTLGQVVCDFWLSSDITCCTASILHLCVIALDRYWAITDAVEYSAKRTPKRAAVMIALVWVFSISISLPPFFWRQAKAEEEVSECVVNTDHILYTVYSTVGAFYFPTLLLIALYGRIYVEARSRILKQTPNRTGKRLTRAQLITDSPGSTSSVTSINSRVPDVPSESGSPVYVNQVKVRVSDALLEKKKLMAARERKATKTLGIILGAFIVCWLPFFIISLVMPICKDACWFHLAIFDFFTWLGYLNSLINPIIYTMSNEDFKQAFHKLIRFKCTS

[3] = biological target: T3, 5-hydroxytryptamine receptor 1A (Homo sapiens, UniProt P08908); assay: Binding affinity for 5-hydroxytryptamine 1A receptor was determined
T3 sequence (P08908 whole entry): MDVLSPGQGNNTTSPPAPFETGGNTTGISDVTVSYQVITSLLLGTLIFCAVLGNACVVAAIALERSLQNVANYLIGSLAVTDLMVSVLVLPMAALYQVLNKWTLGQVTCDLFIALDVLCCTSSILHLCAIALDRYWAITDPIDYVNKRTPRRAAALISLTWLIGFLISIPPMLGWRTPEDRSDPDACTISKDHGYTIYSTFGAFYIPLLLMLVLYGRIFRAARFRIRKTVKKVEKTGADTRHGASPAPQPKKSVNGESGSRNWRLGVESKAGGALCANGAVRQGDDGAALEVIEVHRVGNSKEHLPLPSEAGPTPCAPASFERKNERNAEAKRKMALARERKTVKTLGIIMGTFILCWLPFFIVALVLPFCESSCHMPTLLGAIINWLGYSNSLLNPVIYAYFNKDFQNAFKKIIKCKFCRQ

D(2) dopamine receptor [4] = biological target: T4, D(2) dopamine receptor (Homo sapiens, UniProt P14416); assay: Binding affinity for Dopamine receptor D2 was determined
T4 sequence (P14416 whole entry): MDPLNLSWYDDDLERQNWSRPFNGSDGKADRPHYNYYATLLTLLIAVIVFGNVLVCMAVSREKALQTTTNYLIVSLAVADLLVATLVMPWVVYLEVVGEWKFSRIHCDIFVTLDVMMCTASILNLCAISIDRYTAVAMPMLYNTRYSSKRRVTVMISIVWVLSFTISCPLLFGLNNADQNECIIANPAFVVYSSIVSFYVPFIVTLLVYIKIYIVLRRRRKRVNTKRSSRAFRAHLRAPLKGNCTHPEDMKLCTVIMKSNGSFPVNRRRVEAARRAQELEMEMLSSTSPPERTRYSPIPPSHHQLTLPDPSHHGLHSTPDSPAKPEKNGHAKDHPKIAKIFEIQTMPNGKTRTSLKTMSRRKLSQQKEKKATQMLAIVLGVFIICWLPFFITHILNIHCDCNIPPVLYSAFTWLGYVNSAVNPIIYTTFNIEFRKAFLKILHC

[5] = biological target: T5, 5-hydroxytryptamine receptor 2B (Homo sapiens, UniProt P41595); assay: Binding affinity for 5-hydroxytryptamine 2B receptor was determined
T5 sequence (P41595 whole entry): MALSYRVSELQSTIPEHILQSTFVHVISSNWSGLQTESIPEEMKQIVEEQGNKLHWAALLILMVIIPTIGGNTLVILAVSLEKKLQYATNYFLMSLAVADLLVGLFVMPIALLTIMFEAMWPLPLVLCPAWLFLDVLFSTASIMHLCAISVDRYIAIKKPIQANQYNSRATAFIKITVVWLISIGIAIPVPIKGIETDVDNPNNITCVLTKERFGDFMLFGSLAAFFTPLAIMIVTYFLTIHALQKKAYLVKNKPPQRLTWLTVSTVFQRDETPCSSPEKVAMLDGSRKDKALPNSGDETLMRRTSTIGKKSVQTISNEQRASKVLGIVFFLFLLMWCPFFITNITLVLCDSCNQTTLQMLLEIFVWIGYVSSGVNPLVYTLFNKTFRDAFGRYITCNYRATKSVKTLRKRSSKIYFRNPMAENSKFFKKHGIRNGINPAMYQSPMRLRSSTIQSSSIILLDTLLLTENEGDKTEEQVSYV

[6] = biological target: T6, 5-hydroxytryptamine receptor 2C (Homo sapiens, UniProt P28335); assay: Binding affinity for 5-hydroxytryptamine 2C receptor was determined
T6 sequence (P28335 whole entry): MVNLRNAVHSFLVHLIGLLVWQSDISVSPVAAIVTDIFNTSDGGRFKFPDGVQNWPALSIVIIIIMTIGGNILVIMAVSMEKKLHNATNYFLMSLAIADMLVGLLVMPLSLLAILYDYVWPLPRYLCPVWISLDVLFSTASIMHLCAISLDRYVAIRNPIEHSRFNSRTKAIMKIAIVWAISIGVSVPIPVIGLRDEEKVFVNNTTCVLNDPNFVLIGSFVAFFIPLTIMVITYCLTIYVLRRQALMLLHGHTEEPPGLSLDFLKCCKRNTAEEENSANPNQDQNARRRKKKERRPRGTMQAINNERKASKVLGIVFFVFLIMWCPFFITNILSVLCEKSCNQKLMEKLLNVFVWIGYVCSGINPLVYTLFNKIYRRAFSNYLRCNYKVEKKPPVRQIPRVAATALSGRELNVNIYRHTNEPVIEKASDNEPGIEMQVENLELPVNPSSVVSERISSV

[7] = biological target: T7, 5-hydroxytryptamine receptor 1E (Homo sapiens, UniProt P28566); assay: Binding affinity for 5-hydroxytryptamine 1E receptor was determined
T7 sequence (P28566 whole entry): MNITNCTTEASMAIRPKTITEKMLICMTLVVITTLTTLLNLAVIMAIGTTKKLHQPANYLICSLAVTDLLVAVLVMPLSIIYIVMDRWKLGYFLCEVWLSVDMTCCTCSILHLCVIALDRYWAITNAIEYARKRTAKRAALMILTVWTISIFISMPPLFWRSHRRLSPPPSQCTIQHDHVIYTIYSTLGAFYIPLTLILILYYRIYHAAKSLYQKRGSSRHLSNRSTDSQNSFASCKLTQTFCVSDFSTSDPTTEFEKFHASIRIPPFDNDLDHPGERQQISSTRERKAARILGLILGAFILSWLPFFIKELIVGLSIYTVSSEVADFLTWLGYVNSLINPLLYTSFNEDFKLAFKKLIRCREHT

[8] = biological target: T8, 5-hydroxytryptamine receptor 7 (Homo sapiens, UniProt P34969); assay: Binding affinity for 5-hydroxytryptamine 7 receptor was determined
T8 sequence (P34969 whole entry): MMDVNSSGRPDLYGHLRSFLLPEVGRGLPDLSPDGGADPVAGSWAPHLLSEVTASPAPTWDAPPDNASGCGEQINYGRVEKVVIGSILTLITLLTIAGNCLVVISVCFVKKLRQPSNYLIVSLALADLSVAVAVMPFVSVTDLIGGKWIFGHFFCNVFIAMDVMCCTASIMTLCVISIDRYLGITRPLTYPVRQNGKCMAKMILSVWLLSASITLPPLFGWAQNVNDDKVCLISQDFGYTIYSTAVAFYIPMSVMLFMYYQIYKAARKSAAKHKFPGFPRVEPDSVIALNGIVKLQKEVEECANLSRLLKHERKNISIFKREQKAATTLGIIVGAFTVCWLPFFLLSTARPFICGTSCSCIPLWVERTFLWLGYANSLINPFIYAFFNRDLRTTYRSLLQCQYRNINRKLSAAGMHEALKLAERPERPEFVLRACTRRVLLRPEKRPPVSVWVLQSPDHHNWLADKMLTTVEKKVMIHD

[9] = biological target: T9, 5-hydroxytryptamine receptor 6 (Homo sapiens, UniProt P50406); assay: Binding affinity for 5-hydroxytryptamine 6 receptor was determined
T9 sequence (P50406 whole entry): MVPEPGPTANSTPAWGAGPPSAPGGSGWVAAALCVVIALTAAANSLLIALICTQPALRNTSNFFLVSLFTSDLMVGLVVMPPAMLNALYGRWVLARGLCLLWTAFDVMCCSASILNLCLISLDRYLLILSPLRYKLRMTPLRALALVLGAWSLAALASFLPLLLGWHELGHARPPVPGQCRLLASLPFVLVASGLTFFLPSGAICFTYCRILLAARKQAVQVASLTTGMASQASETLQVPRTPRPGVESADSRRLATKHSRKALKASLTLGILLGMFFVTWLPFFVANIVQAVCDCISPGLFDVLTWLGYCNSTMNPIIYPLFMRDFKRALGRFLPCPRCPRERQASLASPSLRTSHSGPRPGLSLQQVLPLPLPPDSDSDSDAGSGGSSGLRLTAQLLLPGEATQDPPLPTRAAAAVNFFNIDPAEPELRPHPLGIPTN

D(3) dopamine receptor [10] = biological target: T10, D(3) dopamine receptor (Homo sapiens, UniProt P35462); assay: Binding affinity for Dopamine receptor D3 was determined
T10 sequence (P35462 whole entry): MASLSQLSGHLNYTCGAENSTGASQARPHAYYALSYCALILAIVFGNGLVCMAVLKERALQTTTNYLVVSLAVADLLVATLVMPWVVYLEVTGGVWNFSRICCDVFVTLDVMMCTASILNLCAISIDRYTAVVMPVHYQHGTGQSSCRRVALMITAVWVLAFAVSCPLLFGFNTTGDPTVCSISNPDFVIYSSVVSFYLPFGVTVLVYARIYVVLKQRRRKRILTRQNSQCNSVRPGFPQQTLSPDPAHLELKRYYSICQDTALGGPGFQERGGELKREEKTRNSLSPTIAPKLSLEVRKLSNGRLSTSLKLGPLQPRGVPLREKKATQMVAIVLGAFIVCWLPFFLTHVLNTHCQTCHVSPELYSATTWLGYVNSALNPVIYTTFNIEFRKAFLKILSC

[11] = biological target: T11, 5-hydroxytryptamine receptor 2A (Homo sapiens, UniProt P28223); assay: Binding affinity for 5-hydroxytryptamine 2A receptor was determined
T11 sequence (P28223 whole entry): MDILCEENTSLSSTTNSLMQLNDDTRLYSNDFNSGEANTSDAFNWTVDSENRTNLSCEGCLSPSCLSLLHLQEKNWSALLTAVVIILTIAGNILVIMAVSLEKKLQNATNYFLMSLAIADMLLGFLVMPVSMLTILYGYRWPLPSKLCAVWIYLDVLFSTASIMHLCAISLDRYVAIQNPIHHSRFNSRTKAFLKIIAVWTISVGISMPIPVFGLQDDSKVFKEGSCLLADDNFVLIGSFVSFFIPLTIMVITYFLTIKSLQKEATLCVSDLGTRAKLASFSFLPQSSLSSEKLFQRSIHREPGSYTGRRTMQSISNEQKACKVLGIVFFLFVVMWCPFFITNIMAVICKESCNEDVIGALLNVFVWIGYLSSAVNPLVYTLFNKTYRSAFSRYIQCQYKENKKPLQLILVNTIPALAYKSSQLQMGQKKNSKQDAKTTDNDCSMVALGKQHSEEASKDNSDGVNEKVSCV

[12] = biological target: T12, C-C chemokine receptor type 2 (Homo sapiens, UniProt P41597); assay: (§1) Inhibition of [125I]MCP-1 binding to the cloned C-C chemokine receptor type 2B expressed in CHO cells; type: cell-based
Target sequence in this assay (P41597 whole entry): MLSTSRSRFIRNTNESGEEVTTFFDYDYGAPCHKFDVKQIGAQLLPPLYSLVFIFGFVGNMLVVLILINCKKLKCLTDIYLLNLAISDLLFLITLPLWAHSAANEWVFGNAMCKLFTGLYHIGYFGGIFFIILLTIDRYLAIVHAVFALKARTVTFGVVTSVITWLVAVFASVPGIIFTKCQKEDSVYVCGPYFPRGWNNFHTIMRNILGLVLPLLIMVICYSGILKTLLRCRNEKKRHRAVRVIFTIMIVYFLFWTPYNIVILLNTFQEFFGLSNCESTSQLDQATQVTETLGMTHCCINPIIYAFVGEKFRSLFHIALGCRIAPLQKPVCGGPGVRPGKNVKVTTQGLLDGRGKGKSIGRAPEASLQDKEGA

[13] = biological target: T12, C-C chemokine receptor type 2; assay: as §1; type: cell-based; remark: listed apart in the source
Target sequence in this assay (P41597 whole entry): as above

[14] = biological target: T12, C-C chemokine receptor type 2; assay: as §1; type: cell-based; remark: listed apart in the source
Target sequence in this assay (P41597 whole entry): as above

[15] = biological target: T13, 5-hydroxytryptamine receptor 2C (Homo sapiens) (UniProt P28335); assay: Binding affinity relative to indolopiperidine (compound 1) for 5-hydroxytryptamine 2C receptor was determined
T13 sequence (whole entry): T6 sequence (P28335 whole entry)

[16] = biological target: T5, 5-hydroxytryptamine receptor 2B; assay: Binding affinity relative to indolopiperidine (compound 1) for 5-hydroxytryptamine 2B receptor was determined
[17] = biological target: T11, 5-hydroxytryptamine receptor 2A; assay: Binding affinity relative to indolopiperidine (compound 1) for 5-hydroxytryptamine 2A receptor was determined
[18] = biological target: T8, 5-hydroxytryptamine receptor 7; assay: (§2) Binding affinity relative to indolopiperidine (compound 1) for 5-hydroxytryptamine 7 receptor was determined
[19] = biological target: T2, 5-hydroxytryptamine receptor 1B; assay: Binding affinity relative to indolopiperidine (compound 1) for 5-hydroxytryptamine 1B receptor was determined
[20] = biological target: T12, C-C chemokine receptor type 2
Target sequence in this assay (P41597 whole entry, looked up): as the sequence (P41597 whole entry) above

[21] = biological target: T14, 5-hydroxytryptamine receptor 1A (Homo sapiens) (UniProt P08908); assay: Binding affinity relative to indolopiperidine (compound 1) for 5-hydroxytryptamine 1A receptor was determined
T14 sequence (whole entry): T3 sequence (P08908 whole entry)

D(3) dopamine receptor [22] = biological target: T10, D(3) dopamine receptor; assay: (§3) Binding affinity relative to indolopiperidine (compound 1) for Dopamine receptor D3 was determined
[23] = biological target: T7, 5-hydroxytryptamine receptor 1E; assay: Binding affinity relative to indolopiperidine (compound 1) for 5-hydroxytryptamine 1E receptor was determined
[24] = biological target: T9, 5-hydroxytryptamine receptor 6; assay: Binding affinity relative to indolopiperidine (compound 1) for 5-hydroxytryptamine 6 receptor was determined
[25] = biological target: T15, 5-hydroxytryptamine receptor 1F (Homo sapiens) (UniProt P30939); assay: Binding affinity relative to indolopiperidine (compound 1) for 5-hydroxytryptamine 1F receptor was determined
T15 sequence (whole entry): T1 sequence (P30939 whole entry)

D(2) dopamine receptor [26] = biological target: T4, D(2) dopamine receptor; assay: (§4) Binding affinity relative to indolopiperidine (compound 1) for Dopamine receptor D2 was determined
[27] = biological target: T12, C-C chemokine receptor type 2; assay: Inhibition of [125I]MCP-1 binding to the cloned C-C chemokine receptor type 2B expressed in CHO cells; IA mean inactive; type: cell-based
Target sequence in this assay (P41597 whole entry, looked up): as the sequence (P41597 whole entry) above

D(3) dopamine receptor [28] = biological target: T10, D(3) dopamine receptor; assay: as §3; remark: listed apart in the source
D(2) dopamine receptor [29] = biological target: T4, D(2) dopamine receptor; assay: as §4; remark: listed apart in the source
[30] = biological target: T12, C-C chemokine receptor type 2; assay: Binding affinity relative to indolopiperidine (compound 1) forC-C chemokine receptor type 2B was determined
Target sequence in this assay (P41597 whole entry, looked up): as the sequence (P41597 whole entry) above

[31] = biological target: T12, C-C chemokine receptor type 2; assay: Binding affinity for C-C chemokine receptor type 2B was determined
Target sequence in this assay (P41597 whole entry): as above

[32] = biological target: T8, 5-hydroxytryptamine receptor 7; assay: as §2; remark: listed apart in the source
[33] = biological target: T12, C-C chemokine receptor type 2; assay: Inhibition of [125I]MCP-1 binding to the cloned C-C chemokine receptor type 2B expressed in CHO cells; IA means inactive; type: cell-based
Target sequence in this assay (P41597 whole entry, looked up): as the sequence (P41597 whole entry) above

[34] = biological target: T12, C-C chemokine receptor type 2; assay: Binding affinity relative to indolopiperidine (compound 1) for C-C chemokine receptor type 2B was determined
Target sequence in this assay (P41597 whole entry, looked up): as the sequence (P41597 whole entry) above

[35] = biological target: T11, 5-hydroxytryptamine receptor 2A; assay: Binding affinity relative to indolopiperidine (compound 1)for 5-hydroxytryptamine 2A receptor was determined

pKi [1]: 8.50
pKi [2]: 7.90
pKi [3]: 7.00
pKi (D(2) dopamine receptor [4]): 7.80
pKi [5]: 7.60
pKi [6]: 7.10
pKi [7]: 8.20
pKi [8]: 7.20
pKi [9]: 7.10
pKi (D(3) dopamine receptor [10]): 8.10
pKi [11]: 7.70
Structure (SMILES): O=C(/C=C/c1ccc(Cl)c(Cl)c1)NCCCCCN1CCC(c2c[nH]c3ccc(O)cc23)CC1

Structure (SMILES): O=C(/C=C/c1ccc(Cl)c(Cl)c1)NCCCCCN1[C@@H]2CC[C@H]1CC(c1c[nH]c3ccc(O)cc13)C2 (single isomer, unassigned)
pKi [12]: 6.20
pKi [13]: 6.20

Structure (SMILES): O=C(/C=C/c1ccc(Cl)c(Cl)c1)N[C@H]1CC[C@@H](CN2CCC(c3c[nH]c4ccccc34)CC2)CC1
pKi [14]: 6.90

Structure (SMILES): O=C(/C=C/c1ccc(Cl)c(Cl)c1)NCCCCCN1[C@@H]2CC[C@H]1CC(c1c[nH]c3ccc(O)cc13)C2 (stereo in doubt) [listing 1 of 2 here]
Delta pKi [15]: -0.5
Delta pKi [16]: -1.5
Delta pKi [17]: -0.9
Delta pKi [18]: -1.5
Delta pKi [19]: -1.6
Delta pKi [20]: -0.7
Delta pKi [21]: -1.1
Delta pKi (D(3) dopamine receptor [22]): -1.4
Delta pKi [23]: -3.2
Delta pKi [24]: -0.9
Delta pKi [25]: -2.7
Delta pKi (D(2) dopamine receptor [26]): -1.7

Structure (SMILES): O=C(/C=C/c1ccc(Cl)c(Cl)c1)NCc1cccc(CN2CCC(c3c[nH]c4ccccc34)CC2)c1
Log Ki [27]: inactive

Structure (SMILES): O=C(/C=C/c1ccc(Cl)c(Cl)c1)N[C@H]1CC[C@@H](CN2[C@@H]3CC[C@H]2C[C@H](c2c[nH]c4ccc(O)cc24)C3)CC1
Delta pKi [15]: > -1.6
pKi (D(3) dopamine receptor [28]): 5.60
Delta pKi [16]: -1.3
Delta pKi [17]: -3
Delta pKi [18]: > -1.9
pKi (D(2) dopamine receptor [29]): 5.90
pKi [1]: < 5.50
Delta pKi [19]: -1.9
pKi [2]: 6.00
pKi [3]: 5.10
Delta pKi [30]: 0.1
Delta pKi [21]: -1.9
pKi [5]: 6.30
Delta pKi (D(3) dopamine receptor [22]): -2.5
pKi [6]: < 5.50
pKi [7]: < 5.20
Delta pKi [23]: > -3.2
Delta pKi [24]: -1.4
Delta pKi [25]: > -3
pKi [9]: 5.70
pKi [31]: 7.40
Delta pKi (D(2) dopamine receptor [26]): -1.9
Log Ki [32]: < -6.1
pKi [11]: < 4.70
pKi [13]: 7.40

Structure (SMILES): O=C(/C=C/c1ccc(Cl)c(Cl)c1)Nc1ccc(CN2CCC(c3c[nH]c4ccccc34)CC2)cc1
Log Ki [33]: inactive

Structure (SMILES): O=C(/C=C/c1ccc(Cl)c(Cl)c1)NCCCCCN1[C@@H]2CC[C@H]1CC(c1c[nH]c3ccc(O)cc13)C2 (stereo in doubt) [listing 2 of 2 here]
pKi [14]: 6.60
pKi [13]: 6.60

Structure (SMILES): O=C(/C=C/c1ccc(Cl)c(Cl)c1)N[C@H]1CC[C@@H](CN2CCC(c3c[nH]c4ccc(O)cc34)CC2)CC1
Delta pKi [15]: -0.4
Delta pKi [16]: -0.5
Delta pKi [18]: -0.4
Delta pKi [19]: -1.2
Delta pKi [21]: -0.7
Delta pKi (D(3) dopamine receptor [22]): -0.9
Delta pKi [23]: -1.4
Delta pKi [24]: -0.9
pKi [12]: 7.10 and 6.90
Delta pKi [25]: -2.6
Delta pKi (D(2) dopamine receptor [26]): -0.8
Delta pKi [34]: -0.2
Delta pKi [35]: -0.1
pKi [13]: 7.10
